Consider one substance from patent publication US20190209472A1, “FORMULATIONS FOR DERMAL DELIVERY OF POLYMER CONJUGATES OF INDOLOCARBAZOLE COMPOUNDS WITH REDUCED EXPOSURE” (Sienna Biopharmaceuticals, Inc., priority 2017, published 2019).

This assay relates to pruritus associated with psoriasis vulgaris. Kind of assay: Phase 1b maximal use study: exploratory efficacy (I-NRS, PASI, IGA, BSA). The assay is classed as in vivo, human. The source says:
Efficacy Evaluations: Change from baseline at each study visit in the I-NRS; Change from baseline at each study visit in the Psoriasis Area and Severity Index ([…]) score; PASI-75: response defined as a reduction of ≥75% from baseline at each study visit on the PASI; PASI-50: response defined as a reduction of ≥50% from baseline at each study visit on the PASI; Change from baseline at each study visit in the Investigator Global Assessment (IGA); Proportion of subjects with a ≥1-grade decrease on the IGA at each study visit; Proportion of subjects with a ≥2-grade decrease on the IGA at each study visit; and Change from baseline at each study visit in BSA affected by psoriasis.
Subject Assessments—Itch Numeric Rating Scale: The I-NRS is a 1 item daily PRO measure that the subjects use to assess pruritus severity at its worst in the 24 hours prior to the assessment based on an 11-point numeric rating scale ranging from 0 (“no itching at all”) to 10 (“worst possible itching”). The I-NRS assesses overall pruritus severity. An I-NRS score of at least 4 is required to be eligible for the study. The investigator will evaluate subject eligibility based on itch associated with PV plaques at Screening. The Baseline measurement will be collected on Study Day 1 prior to study drug administration. The change from Baseline at each study visit will be determined.
Investigator Assessments: Investigator assessments include: BSA affected by psoriasis; IGA of overall psoriasis (Apremilast (Otezla) CDER Medical Review of Celgene NDA, 2014. Accessdata.fda.gov. Accessed Aug. 8, 2017.); and PASI (Fredriksson T, Pettersson U. Severe psoriasis—oral therapy with a new retinoid. Dermatologica. 1978; 157(4):238-244.).
Body Surface Area Affected by Psoriasis: Assessment of the percentage of a subject's BSA affected by psoriasis will be made by best estimates of the investigator, using the “handprint” method where 1%=1 subject handprint. At screening and baseline this should be ≥20% of BSA. The change from baseline BSA affected by psoriasis will be determined.
Investigator Global Assessment: The IGA is a site-based clinician-reported outcome measure that assesses the overall severity of psoriasis by evaluating induration (plaque elevation), erythema, and desquamation (scaling) on a 5-point scale from 0 to 4, where 0=Clear to 4=Severe. The investigator will make this assessment to calculate the overall improvement in psoriasis (the proportion of subjects achieving a rating of “Clear” or “Almost Clear” and at least a 2-point decrease [improvement] on the 5-point scale) using the IGA. The proportion of subjects achieving at least a 1-grade and 2-grade decrease from baseline will also be calculated.
Psoriasis Area and Severity Index: The PASI score is a site-based ClinRO by which a weighted sum of erythema, scaling, and induration/thickness scores over different regions of the body is determined, using the algorithm given in Fredriksson T, Pettersson U., Dermatologica. 1978; 157(4):238-244.). Each symptom will be scored on a 5-point scale from 0 to 4, where 0=Clear and 4=Very marked. The change from Baseline in the PASI score, and the percentages of subjects who have achieved a ≥75% or ≥50% reduction from baseline (PASI-75 and PASI-50, respectively), will be determined.

“(9S, 10R, 12R)-10-(3′-mPEG2000-1′,3′-oxazolidine-2′,4′-dione)-2,3,9,10,11,12-hexahydro-9-methyl-1-oxo-9,12-epoxy-1H-diindolo[1,2,3-fg:3′,2′,1′-k,l]pyrrolo[3,4-i][1,6] benzodiazocine] [CT327]”: where the note is “Week 4”, the “IGA 1-grade, % of subjects” value was “(30%)”; the “IGA 2-grade, % of subjects” value is given as “(13.3%)”; the “NRS 3-grade, % of subjects” value is “(60.0%)”; the “NRS 50, % of subjects” value is recorded as “(46.7%)”. In addition, where the note is “Week 4”, the “NRS (% change from baseline), mean” value is −41.35%; the “PASI 50, % of subjects” value was “(33.3%)”; the “PASI 75, % of subjects” value is on record as “(10.0%)”; the “PASI (change from baseline), mean” value is on record as −6.44. Further, the “NRS (change from baseline), mean” value (Week 4, 0.5% SNA-120 (w/w) ointment twice daily, open label) is −3.4. The “Subjects with at least a 4-grade improvement in the Itch Numeric Rating Scale (I-NRS)” value (post hoc analysis) was “approximately 57% of subjects”.
